Measured values: patent US6376510B1, “Neuromuscular relaxants” (Newlaxant LLC, priority 1997, dated 2002)

What was measured:
[1] = tested on: anesthetized rats (evoked responses of anterior tibial muscle); test: Muscle relaxant (neuromuscular blocking) properties, anesthetized rat (Example 9, Table 9); conditions: rat; for ED50: intravenous dose causing 50% neuromuscular block, spread in brackets; for RI (recovery index): spontaneous recovery, 25-75% neuromuscular response; for Onset: time to 80-85% neuromuscular block
Excerpt: The data on muscle relaxant action were obtained on anesthetized rats, and when indicated, also on juvenile pigs
Adult, male albino rats were anesthetized with pentobarbital injected intraperitoneally. Juvenile, Duroc pigs 9-12 kg body weight were anesthetized with Chloralose Nembutal sodium mixture intraperitoneally after deep sedation with inhaled halothane. The trachea was cannulated for artificial respiration via a small animal respirator. The carotid artery was cannulated for recording blood pressure via a transducer and heart rate by a cardiotachograph on a polygraph. One external jugular vein was cannulated for i.v. drug administration. Neuromuscular function was monitored by electromyography, recording evoked responses from the anterior tibial muscle as a result of supramaximal nerve stimuli consisting of single or “train-of-four” rectangular pulses of 0.1-0.2 msec duration every 10-12 seconds, delivered to the sciatic or common peroneal nerve by a laboratory nerve stimulator. Another mode of stimulation included repeated single stimuli delivered at 0.1 Hz or 1 Hz. […] The agents were dissolved in physiologic saline and injected intravenously at appropriate time intervals. The intensity, onset, and duration of neuromuscular block and its type were determined with each agent. Through administering several doses, the doses corresponding to 50%, 80% and 90% neuromuscular block were determined. All agents were compared with selected standard neuromuscular blocking compounds, e.g., rocuronium.
(§1) Onset=time in minutes to 80-85% neuromuscular block.
(§2) RI=recovery index, minutes, spontaneous recovery, 25-75% neuromuscular response.
(§3) VB=vagal block, %, at 80-85% neuromuscular blocking dose.
HR=change in heart rate, %, at 80-85% neuromuscular blocking dose.
BP=change in arterial blood pressure, %, at 80-85% neuromuscular blocking dose.

[2] = tested on: anesthetized rats (evoked responses of anterior tibial muscle); test: In vivo neuromuscular block and cardiovascular side effects, anesthetized rat (Example 8, Table 3); conditions: rat
In short: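 Pentobarbital-anesthetized (i.p.), ventilated adult male rats given saline-dissolved agents i.v.; anterior tibial EMG responses to supramaximal single or train-of-four sciatic/peroneal stimuli, plus 0.1 or 1 Hz stimulation. Doses for 50%, 80%, 90% block derived. Onset: minutes to 80-85% block; RI: 25-75% spontaneous recovery; vagal block, heart rate and blood pressure changes (%) at 80-85% blocking dose.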

[3] = tested on: anesthetized cats (evoked responses of anterior tibial muscle); test: animal or person; conditions: cat
Excerpt: a) Adult, male albino rats were anesthetized with pentobarbital injected intraperitoneally. The trachea was cannulated for artificial respiration via a small animal respirator. The carotid artery was cannulated for recording blood pressure via a transducer and heart rate by a cardiotachograph on a polygraph. One external jugular vein was cannulated for i.v. drug administration. Neuromuscular function was monitored by electromyography, recording evoked responses from the anterior tibial muscle as a result of supramaximal nerve stimuli consisting of single or “train-of-four” rectangular pulses of 0.1-0.2 msec duration every 10-12 seconds, delivered to the sciatic or common peroneal nerve by a laboratory nerve stimulator. Another mode of stimulation included repeated single stimuli delivered at 0.1 Hz or 1 Hz. […] The agents were dissolved in physiologic saline and injected intravenously at appropriate time intervals. The intensity, onset, and duration of neuromuscular block and its type were determined with each agent. Through administering several doses, the doses corresponding to 50%, 80% and 90% neuromuscular block were determined. All agents were compared with selected standard neuromuscular blocking compounds, e.g. succinylcholine, pancuronium, mivacurium, or rocuronium.
as §1, §2, §3
ΔHR=change in heart rate, %, at 80-85% neuromuscular blocking dose.
ΔBP=change in arterial blood pressure, %, at 80-85% neuromuscular blocking dose.
b) Adult cats were anesthetized with a mixture of 70 mg/kg alpha chloralose and 0.5 g/kg ethylurethane intraperitoneally. One thigh was fixed in a vertical position by means of a pin at the lower end of the femur. Needle electrodes were placed on the sciatic or the common peroneal nerve. A tendon of the anterior tibial muscle was attached to a force transducer and the muscle responses evoked, as described under a), were recorded. Both electromyographic and mechanomyographic responses can be quantified. Blood pressure and heart rate changes were recorded from appropriately cannulated arteries via a blood pressure transducer and cardiotachograph.

[4] = tested on: anesthetized juvenile pigs; test: animal or person; format: in vivo; conditions: pig
In short: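 Electromyographic and mechanomyographic responses quantified. Monkeys sedated with intramuscular ketamine, then general anesthesia with intravenous pentobarbital and propofol; juvenile pigs induced with inhaled halothane.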

anesthetized monkeys = test: In vivo neuromuscular block and cardiovascular side effects, monkey (Example 8, Table 6)
Excerpt: Both electromyographic and mechanomyographic responses can be quantified.
The techniques described under a) and b) were employed in other species as needed with the modification that juvenile pigs were initially anesthetized with inhalation of halothane (Table 5) and monkeys were initially sedated with intramuscular ketamine injections prior to inducing and maintaining general anesthesia using pentobarbital and propofol administered intravenously (Table 6).

rabbits = test: In vivo neuromuscular block and cardiovascular side effects, rabbit (Example 8, Table 7)
[5] = at 80-85% neuromuscular blocking dose
[6] = intravenous dose causing 50% neuromuscular block
[7] = spontaneous recovery, 25-75% neuromuscular response
[8] = time to 80-85% neuromuscular block

## CC(=O)Oc1ccc(C[N+](C)(C)C2CCC(OC(=O)CCCC(=O)OC3CCC([N+](C)(C)Cc4ccc(OC(C)=O)c(OC(C)=O)c4)CC3)CC2)cc1OC(C)=O.[Br-].[Br-] (stereo not drawn) [Bis[4-dimethylaminocyclohexyl]glutarate bis(3,4-diacetoxybenzyl bromide)]
[1]; in vivo
  % VB at ED80 nmb (vagal block): 64 (22) %
  BP (change in arterial blood pressure): −13 (6) %
  HR (change in heart rate): −5 (3) %
[1]
  ED50: 700 (122) μg/kg
  RI (recovery index): 0.8 (0.07) min
  Onset: 0.75 (0.05) min

## Bis[N-(4-acetoxy-3,5-dimethoxybenzyl)-6-azabicyclo[3.2.1]octanium-3-yl]glutarate dibromide
[1]; in vivo
  % VB at ED80 nmb (vagal block): 75 (5) %
  BP (change in arterial blood pressure): +21 (2) %
  HR (change in heart rate): 0%
[1]
  ED50: 3050 (193) μg/kg
  RI (recovery index): 1.4 (0.1) min
  Onset: 0.75 (0.05) min

## COc1cc(C[N+](C)(C)C2CCC(OC(=O)CCCC(=O)OC3CCC([N+](C)(C)Cc4ccc(OC(C)=O)c(OC)c4)CC3)CC2)ccc1OC(C)=O.[Br-].[Br-] (stereo not drawn) [Bis[4-dimethylaminocyclohexyl]glutarate bis(4-acetoxy-3-methoxybenzyl bromide)]
[1]; [5]
  % VB at ED80 nmb (vagal block): 73 (9) %
  BP (change in arterial blood pressure): −14 (5) %
  HR (change in heart rate): −5 (2) %
[1]
  ED50: 2075 (188) μg/kg
  RI (recovery index): 0.9 (0.05) min
  Onset: 0.84 (0.06) min

## Bis[4-dimethylaminocyclohexyl]glutarate bis(benzyl bromide) [reference compound]
[1]
  ED50: 2500 µg/kg
  RI (recovery index): 1.65 (0.1) min
  Onset: 1.6 (0.1) min

## CC(=O)Oc1ccc(C[N+](C)(C)C2CCC(OC(=O)/C=C/C(=O)OC3CCC([N+](C)(C)Cc4ccc(OC(C)=O)c(OC(C)=O)c4)CC3)CC2)cc1OC(C)=O.[Br-].[Br-] (stereo not drawn) [Bis[4-dimethylaminocyclohexyl]fumarate bis(3,4-diacetoxybenzyl bromide)]
[1]; in vivo
  % VB at ED80 nmb (vagal block): 65 (18) %
  BP (change in arterial blood pressure): −4 (3) %
  HR (change in heart rate): +6 (3) %
[1]
  ED50: 2125 (475) μg/kg
  RI (recovery index): 1.5 (0.1) min
  Onset: 1.3 (0.1) min

## Bis[N-(4-acetoxy-3-methoxybenzyl)-6-azabicyclo[3.2.1]octanium-3-yl]-glutarate dibromide
[1]; in vivo
  % VB at ED80 nmb (vagal block): 68 (96) %
  BP (change in arterial blood pressure): +12 (5) %
  HR (change in heart rate): 0%
[1]
  ED50: 1425 (161) μg/kg
  RI (recovery index): 0.65 (0.05) min
  Onset: 0.53 (0.04) min

## COc1cc2c(cc1OC)[C@@H](Cc1cc(OC)c(OC)c(OC)c1)[N+](C)(CCCOC(=O)CC/C=C/CCC(=O)OCCC[N+]1(C)CCc3cc(OC)c(OC)cc3[C@H]1Cc1cc(OC)c(OC)c(OC)c1)CC2 (stereo partly drawn) [Mivacurium, reference compound]
[2]; male, in vivo
  VB (vagal block): 0%
  ΔBP (change in arterial blood pressure): 0%
  ΔH (change in heart rate): 0%
[2]; [6]
  ED50: 140 µg/kg
[2]; [7]
  RI (recovery index): 3.9 min
[2]; [8]
  Onset: 1.8 min
[3]; in vivo
  ΔBP (change in arterial blood pressure): 0%
  ΔH (change in heart rate): 0%
[3]; [6]
  ED50: 25 µg/kg
[3]; [7]
  RI (recovery index): 5 min
[3]; [8]
  Onset: 3.5 min
[4]; Sus scrofa, intravenous dose causing 50% neuromuscular block, read-out: ED50
  ED50: 0.135 mg/kg
[4]; in vivo
  VB (vagal block): 17%
  ΔBP (change in arterial blood pressure): 0%
  ΔH (change in heart rate): 0%
[4]; [7]
  RI (recovery index): 3.6 min
[4]; [8]
  Onset: 1.5 min
Anesthetized monkeys; Primates, intravenous dose causing 50% neuromuscular block, read-out: ED50
  ED50: 0.034 mg/kg
Anesthetized monkeys; in vivo
  ΔBP (change in arterial blood pressure): 0%
  ΔH (change in heart rate): 0%
Anesthetized monkeys; [7]
  RI (recovery index): 2.4 min
Anesthetized monkeys; [8]
  Onset: 1.9 min
rabbits; Oryctolagus cuniculus, intravenous dose causing 50% neuromuscular block, read-out: ED50
  ED50: 0.02 mg/kg
rabbits; in vivo
  ΔBP (change in arterial blood pressure): 0%
  ΔH (change in heart rate): 0%
rabbits; [7]
  RI (recovery index): 3.9 min
rabbits; [8]
  Onset: 2.8 min
